Experimental data reported in ChEMBL document CHEMBL1156441, “Mechanism of inactivation of plasminogen activator inhibitor-1 by a small molecule inhibitor” (J Biol Chem, 2007).

Tests used:
Set-up in all cases: scale not given: the % may be the effect or the level left
[1] = species: Homo sapiens; assay: Inhibition of human non-glycosylated PAI1 R76A mutant using urokinase type plasminogen activator substrate assessed as change in IC50 value relative to wild type by direct chromogenic assay
[2] = species: Homo sapiens; assay: Inhibition of human non-glycosylated PAI1 Y79A mutant using urokinase type plasminogen activator substrate assessed as change in IC50 value relative to wild type by direct chromogenic assay
[3] = species: Homo sapiens; assay: Inhibition of human non-glycosylated PAI1 K80A mutant using urokinase type plasminogen activator substrate assessed as change in IC50 value relative to wild type by direct chromogenic assay
[4] = species: Homo sapiens; assay: Inhibition of human non-glycosylated PAI1 T93A mutant using urokinase type plasminogen activator substrate assessed as change in IC50 value relative to wild type by direct chromogenic assay
[5] = species: Homo sapiens; assay: Inhibition of human non-glycosylated PAI1 T94A mutant using urokinase type plasminogen activator substrate assessed as change in IC50 value relative to wild type by direct chromogenic assay
[6] = species: Homo sapiens; assay: Inhibition of human non-glycosylated PAI1 D95A mutant using urokinase type plasminogen activator substrate assessed as change in IC50 value relative to wild type by direct chromogenic assay
[7] = species: Homo sapiens; assay: Inhibition of human non-glycosylated PAI1 R118A mutant using urokinase type plasminogen activator substrate assessed as change in IC50 value relative to wild type by direct chromogenic assay
[8] = species: Homo sapiens; assay: Inhibition of human non-glycosylated PAI1 T120A mutant using urokinase type plasminogen activator substrate assessed as change in IC50 value relative to wild type by direct chromogenic assay
[9] = species: Homo sapiens; assay: Inhibition of human non-glycosylated PAI1 K122A mutant using urokinase type plasminogen activator substrate assessed as change in IC50 value relative to wild type by direct chromogenic assay
[10] = species: Homo sapiens; assay: Inhibition of human non-glycosylated PAI1 F114A mutant using urokinase type plasminogen activator substrate assessed as change in IC50 value relative to wild type by direct chromogenic assay
[11] = species: Homo sapiens; assay: Inhibition of human non-glycosylated PAI1 H143A mutant using urokinase type plasminogen activator substrate assessed as change in IC50 value relative to wild type by direct chromogenic assay

Molecule `O=C(O)C(=O)c1cn(Cc2ccccc2)c2ccc(-c3ccc(OC(F)(F)F)cc3)cc12` has an Activity [1] of 48%, an Activity [2] of 28% and an Activity [3] of 14%. It also gave an Activity [4] of 27%, an Activity [5] of 54% and an Activity [6] of 58%. For the same molecule, the Activity [7] was 7%, the Activity [8] was -21% and the Activity [9] was -25%. The Activity [10] was 3% and the Activity [11] was -14%.
